Like-named read-outs stand apart in the source and are kept apart here.

Experiment [1] has as its system ALCL cells. The note with it: cited from earlier work.
Experiment [2] concerns ALCL cells. The note with it: cited from earlier work. This is another data set of the same source.
Experiment [3] deals with T1, ALK (Homo sapiens, UniProt Q9UM73). On the set-up: host or cells: ALCL cells; the other entry of the earlier key: NPM1 (P06748, Nucleophosmin). The note with it: cited from earlier work.
In the next experiment the target is T2, human IGF1R (hIGF1R) (Homo sapiens, UniProt P08069).
T2 construct: containing amino acid residues 957-1367 of human IGF1R; made in house; host or cells: Sf9 cells (baculovirus)
T2 sequence (P08069 957-1367): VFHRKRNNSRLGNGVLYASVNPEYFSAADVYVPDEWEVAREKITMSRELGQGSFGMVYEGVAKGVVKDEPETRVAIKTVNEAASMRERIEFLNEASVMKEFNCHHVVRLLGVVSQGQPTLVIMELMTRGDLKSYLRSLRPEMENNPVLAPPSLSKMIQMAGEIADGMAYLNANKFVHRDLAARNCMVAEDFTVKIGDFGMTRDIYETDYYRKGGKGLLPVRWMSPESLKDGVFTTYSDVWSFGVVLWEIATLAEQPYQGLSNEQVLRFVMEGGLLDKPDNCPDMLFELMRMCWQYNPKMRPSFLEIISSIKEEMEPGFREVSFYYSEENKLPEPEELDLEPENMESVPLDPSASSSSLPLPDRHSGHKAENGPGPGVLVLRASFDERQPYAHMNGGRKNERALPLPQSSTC
Nature of the experiment: TR-FRET kinase assay of purified hIGF1R. It counts as biochemical. The note with it: activated hIGF1R 0.5 nM, 10 μM ATP, values given as pIC50 category, read-out: IGF-1R pIC50 (converted). For orientation: TR-FRET usually uses a lanthanide donor and a delayed reading to cut background.

The target of the next experiment is T3, human IR (hIR) (Homo sapiens, UniProt P06213).
T3 construct: containing amino acid residues 979-1382 of human IR; made in house; host or cells: Sf9 cells (baculovirus), same process as hIGF1R
T3 sequence (P06213 979-1382): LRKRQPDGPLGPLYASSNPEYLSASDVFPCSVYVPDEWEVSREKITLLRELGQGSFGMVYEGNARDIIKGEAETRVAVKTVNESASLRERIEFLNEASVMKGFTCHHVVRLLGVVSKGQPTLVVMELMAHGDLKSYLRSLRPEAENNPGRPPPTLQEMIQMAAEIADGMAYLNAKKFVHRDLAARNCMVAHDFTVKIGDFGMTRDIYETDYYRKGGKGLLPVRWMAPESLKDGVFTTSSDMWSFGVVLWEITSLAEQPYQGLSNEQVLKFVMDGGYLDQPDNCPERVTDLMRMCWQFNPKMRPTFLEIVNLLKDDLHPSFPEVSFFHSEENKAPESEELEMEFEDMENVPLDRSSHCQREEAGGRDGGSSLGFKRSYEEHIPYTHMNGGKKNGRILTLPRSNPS
Nature of the experiment: TR-FRET kinase assay of purified hIR. The format is biochemical. The note with it: activated hIR 0.5 nM, 10 μM ATP, values given as pIC50 category.

The next experiment deals with Colo205. Nature of the experiment: Inhibition of cell proliferation (CellTiter-Glo or InCell analyzer), Colo205. It counts as cell-based. The note with it: Homo sapiens, COLO 205, 72 h / 3 days, values given as IC50 category. The procedure, abridged: In one
Another experiment relates to NCI-H929. Nature of the experiment: Inhibition of cell proliferation (CellTiter-Glo or InCell analyzer), NCI-H929. The format is cell-based. The note with it: Homo sapiens, 72 h / 3 days, values given as IC50 category. As for the experimental part: Cell proliferation was measured by either CellTiter-Glo (measures cellular ATP level as a surrogate for total cell number) or by InCell analyzer (counts number of nuclei as a measure of cell number).
For CellTiter-Glo assay, exponentially growing cell lines of different tumor origins, cultured in appropriate media containing 10% fetal bovine serum at 37° C. in a 5% CO2 incubator, were plated at low density (less than 2000cells/well) in 96-well plates. Twenty four hours post-plating, cells were treated with different concentrations of test compounds ranging from 30 uM to 1.5 nM. Several wells were left untreated as a control. Seventy two hours post-treatment, cell numbers were determined using 50-100 ul per well of CellTiter-Glo (Promega #G7573). Plates were incubated at 37° C. for 30 minutes and the chemiluminescent signal was read on the Victor V or Envison 2100 reader.
For InCell Analyser assay, various cell lines of different tumor origins were grown to 70-80% confluency in appropriate culture media containing 10% fetal bovine serum at 37° C. in a 5% CO2 incubator. On day −1, cells were seeded at 2 densities in 384-well plates and incubated at 37° C. overnight. Stock compound plates were prepared in advance which contained dimethyl sulfoxide (DMSO) alone and a 9-point half-log decreasing dose range of the compound in DMSO. The compound plates were stored at −80° C. and each plate was only thawed once and used. On day 0, the main assay plates received compound or DMSO via a sonic delivery system (ECHO). The highest final concentration of compound of the dose range in the culture plates was 10 uM. These plates were cultured at 37° C. for 3 days. […] On day 3, the compound treated plates were stained and fixed to measure proliferation, apoptosis, and mitotic index using an InCelL1000 analyser. A nuclear stain was used to identify cells in the wells. By counting the number of nuclei, the proliferation index of compound treated groups were calculated as a percentage relative to the DMSO control, which was set to 100%. The IC50 values were calculated using model 205 in ExcelFit.
IC50 (nM) values for compounds of select examples were categorized by relative inhibition of cell proliferation.

Experiment [4] has as its target T4, NIH-3T3 cells overexpressing human IGF-1R (Homo sapiens, UniProt P08069).
T4 construct: expressed in transfected cells; host or cells: NIH-3T3 (mouse fibroblasts)
The experiment can be described thus: IGF-1R cellular autophosphorylation (DELFIA). It counts as cell-based. The gist of the method:
(§1)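 Receptor autophosphorylation measured by DELFIA, capturing IGF-1R or IRβ and detecting with europium anti-pTyr, reported as percent of IGF-1- or insulin-stimulated signal. Compounds (30 uM to 1.5 nM) added 2 h before ligand, then 15 min stimulation (IGF-1 30 ng/ml or insulin 3 ug/ml).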

Experiment [5] concerns the target T5, NIH-3T3 cells overexpressing human IR (Homo sapiens, UniProt P06213).
T5 construct: expressed in transfected cells; host or cells: NIH-3T3 (mouse fibroblasts)
The experiment can be described thus: IR cellular autophosphorylation (DELFIA). The format is cell-based. The note with it: 2 h compound, insulin 3 ug/ml for 15 minutes, IC50 category. The procedure, abridged: as §1

The target in experiment [6] is T1, ALK. Nature of the experiment: ALK enzyme assay (HTRF). The format is biochemical. The note with it: 0.25 nM ALK, 15.0 μM ATP, values given as pIC50 category. The procedure, abridged:
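Final compound range 0.00017 to 10 μM (twelve 1:3 dilutions). Kinase reaction with ATP and biotinylated synthetic peptide runs 120 min at 20° C, stopped with EDTA; phosphotyrosine detected by HTRF after 60 min. Inhibition referenced to DMSO (1%) and EDTA (0.1 M) controls, curve-fitted.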
Target sequence in this assay (Q9UM73 19-1620): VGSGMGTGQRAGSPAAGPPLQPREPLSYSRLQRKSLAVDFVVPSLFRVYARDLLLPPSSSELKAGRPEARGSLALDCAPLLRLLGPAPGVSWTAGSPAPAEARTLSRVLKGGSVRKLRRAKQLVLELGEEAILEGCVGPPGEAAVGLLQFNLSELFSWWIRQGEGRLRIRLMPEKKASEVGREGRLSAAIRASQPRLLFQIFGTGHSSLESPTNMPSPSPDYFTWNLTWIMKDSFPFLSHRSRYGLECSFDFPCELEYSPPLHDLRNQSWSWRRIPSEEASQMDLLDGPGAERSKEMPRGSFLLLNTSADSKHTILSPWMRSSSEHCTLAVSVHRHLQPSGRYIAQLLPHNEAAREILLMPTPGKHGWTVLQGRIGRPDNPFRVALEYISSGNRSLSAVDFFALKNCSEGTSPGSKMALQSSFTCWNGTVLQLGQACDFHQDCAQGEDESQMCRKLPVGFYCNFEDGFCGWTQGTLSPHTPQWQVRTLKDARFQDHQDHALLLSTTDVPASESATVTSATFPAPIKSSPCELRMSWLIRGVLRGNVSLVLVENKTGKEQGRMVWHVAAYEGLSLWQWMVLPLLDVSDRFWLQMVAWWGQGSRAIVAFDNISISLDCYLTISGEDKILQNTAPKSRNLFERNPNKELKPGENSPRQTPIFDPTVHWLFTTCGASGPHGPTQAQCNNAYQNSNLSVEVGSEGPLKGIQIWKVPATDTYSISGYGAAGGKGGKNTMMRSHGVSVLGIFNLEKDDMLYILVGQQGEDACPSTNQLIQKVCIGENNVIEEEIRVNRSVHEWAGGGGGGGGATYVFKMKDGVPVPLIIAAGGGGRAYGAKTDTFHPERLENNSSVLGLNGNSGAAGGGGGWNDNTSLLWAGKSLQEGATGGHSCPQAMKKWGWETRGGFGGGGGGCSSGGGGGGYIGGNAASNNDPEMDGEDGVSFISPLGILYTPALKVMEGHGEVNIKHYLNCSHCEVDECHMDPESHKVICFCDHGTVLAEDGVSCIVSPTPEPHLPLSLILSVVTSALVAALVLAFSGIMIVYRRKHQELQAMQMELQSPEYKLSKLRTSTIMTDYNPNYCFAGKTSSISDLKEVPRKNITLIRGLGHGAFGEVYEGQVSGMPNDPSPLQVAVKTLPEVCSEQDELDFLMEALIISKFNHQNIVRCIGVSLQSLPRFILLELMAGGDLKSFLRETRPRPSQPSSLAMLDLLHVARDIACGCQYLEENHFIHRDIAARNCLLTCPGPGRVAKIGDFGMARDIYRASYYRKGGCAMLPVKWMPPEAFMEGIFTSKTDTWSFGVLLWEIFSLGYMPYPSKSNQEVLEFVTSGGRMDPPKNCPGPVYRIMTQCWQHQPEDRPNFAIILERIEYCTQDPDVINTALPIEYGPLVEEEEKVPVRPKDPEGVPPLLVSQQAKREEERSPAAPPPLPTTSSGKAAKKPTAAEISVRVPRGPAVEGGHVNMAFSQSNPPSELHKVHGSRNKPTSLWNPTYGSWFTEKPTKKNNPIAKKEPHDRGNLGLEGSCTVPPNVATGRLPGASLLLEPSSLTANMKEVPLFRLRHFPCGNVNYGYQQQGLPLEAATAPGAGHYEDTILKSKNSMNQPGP

T4 sequence (P08069 31-1367): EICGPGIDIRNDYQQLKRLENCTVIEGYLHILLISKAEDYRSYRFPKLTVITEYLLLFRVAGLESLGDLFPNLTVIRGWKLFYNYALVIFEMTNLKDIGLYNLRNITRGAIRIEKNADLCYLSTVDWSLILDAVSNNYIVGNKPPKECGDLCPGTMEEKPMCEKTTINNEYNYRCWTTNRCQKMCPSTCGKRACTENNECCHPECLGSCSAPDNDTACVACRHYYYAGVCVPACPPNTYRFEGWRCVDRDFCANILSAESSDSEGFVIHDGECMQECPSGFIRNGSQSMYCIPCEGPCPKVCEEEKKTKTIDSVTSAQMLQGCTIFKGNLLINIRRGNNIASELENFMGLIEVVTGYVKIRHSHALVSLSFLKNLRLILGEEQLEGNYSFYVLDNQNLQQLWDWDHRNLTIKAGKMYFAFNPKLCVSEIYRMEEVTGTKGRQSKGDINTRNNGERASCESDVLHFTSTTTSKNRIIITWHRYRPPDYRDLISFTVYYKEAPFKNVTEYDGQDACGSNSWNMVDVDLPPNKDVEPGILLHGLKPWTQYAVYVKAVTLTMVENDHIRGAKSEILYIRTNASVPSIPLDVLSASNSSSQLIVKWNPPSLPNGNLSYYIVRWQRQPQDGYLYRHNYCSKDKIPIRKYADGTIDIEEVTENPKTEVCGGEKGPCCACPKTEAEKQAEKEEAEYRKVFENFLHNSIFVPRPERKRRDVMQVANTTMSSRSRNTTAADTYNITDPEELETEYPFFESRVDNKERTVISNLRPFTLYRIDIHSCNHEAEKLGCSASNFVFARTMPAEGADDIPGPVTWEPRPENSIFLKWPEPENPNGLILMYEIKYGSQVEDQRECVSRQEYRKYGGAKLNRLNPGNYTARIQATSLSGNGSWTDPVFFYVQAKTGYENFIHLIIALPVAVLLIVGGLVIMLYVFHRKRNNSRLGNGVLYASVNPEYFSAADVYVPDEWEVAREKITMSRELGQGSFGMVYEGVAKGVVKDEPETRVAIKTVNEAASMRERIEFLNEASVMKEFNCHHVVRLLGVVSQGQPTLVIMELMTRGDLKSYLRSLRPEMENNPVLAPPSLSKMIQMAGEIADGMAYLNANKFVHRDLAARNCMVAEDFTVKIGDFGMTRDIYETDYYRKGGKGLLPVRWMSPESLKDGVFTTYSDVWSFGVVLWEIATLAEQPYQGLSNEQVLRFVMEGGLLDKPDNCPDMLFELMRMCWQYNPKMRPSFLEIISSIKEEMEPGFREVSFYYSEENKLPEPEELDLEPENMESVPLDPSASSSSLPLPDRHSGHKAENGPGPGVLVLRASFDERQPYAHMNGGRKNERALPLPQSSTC
T5 sequence (P06213 28-1382): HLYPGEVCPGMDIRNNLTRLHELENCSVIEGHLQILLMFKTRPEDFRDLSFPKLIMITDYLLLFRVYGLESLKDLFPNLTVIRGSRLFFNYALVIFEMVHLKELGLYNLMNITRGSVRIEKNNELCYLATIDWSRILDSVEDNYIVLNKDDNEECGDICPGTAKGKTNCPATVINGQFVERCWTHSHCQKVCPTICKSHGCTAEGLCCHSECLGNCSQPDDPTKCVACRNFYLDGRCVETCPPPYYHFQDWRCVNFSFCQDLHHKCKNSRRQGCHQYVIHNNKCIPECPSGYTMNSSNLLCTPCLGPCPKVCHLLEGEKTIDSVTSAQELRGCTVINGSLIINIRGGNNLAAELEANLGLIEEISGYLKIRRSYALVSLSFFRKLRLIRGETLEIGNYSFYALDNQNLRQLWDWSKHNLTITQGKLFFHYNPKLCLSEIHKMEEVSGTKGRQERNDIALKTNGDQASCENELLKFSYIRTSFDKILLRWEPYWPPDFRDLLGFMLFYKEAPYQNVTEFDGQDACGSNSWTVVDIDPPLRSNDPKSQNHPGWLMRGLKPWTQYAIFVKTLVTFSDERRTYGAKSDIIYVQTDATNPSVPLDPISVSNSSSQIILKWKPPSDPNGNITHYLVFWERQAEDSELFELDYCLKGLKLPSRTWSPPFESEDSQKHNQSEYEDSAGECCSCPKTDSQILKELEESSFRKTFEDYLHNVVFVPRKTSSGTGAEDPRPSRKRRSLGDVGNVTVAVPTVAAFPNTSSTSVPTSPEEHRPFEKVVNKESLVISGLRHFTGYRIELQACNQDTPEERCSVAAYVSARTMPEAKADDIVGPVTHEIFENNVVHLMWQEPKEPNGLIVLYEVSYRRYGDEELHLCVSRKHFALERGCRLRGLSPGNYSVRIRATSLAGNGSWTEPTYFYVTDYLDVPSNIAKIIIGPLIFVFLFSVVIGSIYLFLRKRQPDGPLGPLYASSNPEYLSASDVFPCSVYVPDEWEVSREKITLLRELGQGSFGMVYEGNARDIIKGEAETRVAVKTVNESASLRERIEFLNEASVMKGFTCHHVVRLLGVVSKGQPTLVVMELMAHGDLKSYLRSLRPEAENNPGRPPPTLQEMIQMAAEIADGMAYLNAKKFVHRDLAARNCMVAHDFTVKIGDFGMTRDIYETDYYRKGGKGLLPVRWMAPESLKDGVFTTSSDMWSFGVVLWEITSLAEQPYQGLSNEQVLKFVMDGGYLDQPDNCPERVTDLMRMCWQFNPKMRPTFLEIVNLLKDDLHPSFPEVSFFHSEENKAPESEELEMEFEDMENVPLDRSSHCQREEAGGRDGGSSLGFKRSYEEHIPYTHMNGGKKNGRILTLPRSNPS

On to `C[C@@H](Oc1cc(-c2cnn(C3CCNCC3)c2)cnc1N)c1c(Cl)ccc(F)c1Cl` [PF2341066], for which the “inhibition of the growth of ALCL cells” value with ALCL cells [1] (experimental systems in vitro) and in the experiment on ALCL cells [2] (experimental systems in vivo) was “inhibit the growth of ALCL cells” in each case.

With “5-chloro-2,4-diaminophenylpyrimidine [NVP-TAE68]”, in the experiment on ALCL cells [1] (in vitro), the “activity against ALCL cells” value was “active against ALCL cells”. Moreover, the “activity in tumor xenograft models” value with ALCL cells [2] (tumor xenograft models) is recorded as “active”. In addition, on ALK [3], the “consequence of the inhibition of ALK autophosphorylation in the cells” value is “cell cycle arrest and apoptosis”; the “inhibition of ALK autophosphorylation” value is “inhibited ALK autophosphorylation”.

As for `CNC(=O)c1c(F)cccc1Nc1nc(Nc2cc3c(cc2OC)CCCN3C(C)=O)nc2[nH]ccc12` [Example 215, 2-[(2-{[1-acetyl-6-(methyloxy)-1,2,3,4-tetrahydro-7-quinolinyl]amino}-1H-pyrrolo[2,3-d]pyrimidin-4-yl)amino]-6-fluoro-N-methylbenzamide], the IC50 was 5.01 to 200 nM on human IGF1R (hIGF1R); 5.01 to 158 nM on human IR (hIR); > 1000 nM in the experiment with Colo205; 250 to 1000 nM with NCI-H929; > 500 nM in experiment [4]; > 500 nM in experiment [5].

For `COc1cc2c(cc1Nc1nc(Nc3cccc(F)c3C(N)=O)c3c(C)c[nH]c3n1)N(C(=O)CN(C)C)CC2` [Example 259, 2-[(2-{[1-(N,N-dimethylglycyl)-5-(methyloxy)-2,3-dihydro-1H-indol-6-yl]amino}-5-methyl-1H-pyrrolo[2,3-d]pyrimidin-4-yl)amino]-6-fluorobenzamide], the IC50 on human IGF1R (hIGF1R) was 0.251 to 1 nM; against human IR (hIR) it was 0.251 to 1 nM; in the experiment on Colo205 it was 250 to 1000 nM; with NCI-H929, < 250 nM; in [4] it was 100 to 500 nM; in [5] it was 100 to 500 nM.

As for `COc1cc(N2CCN(C(C)C)CC2)ccc1Nc1nc(Nc2ccc(F)cc2C(N)=O)c2cc[nH]c2n1` [Example 60, 5-fluoro-2-[(2-{[4-[4-(1-methylethyl)-1-piperazinyl]-2-(methyloxy)phenyl]amino}-1H-pyrrolo[2,3-d]pyrimidin-4-yl)amino]benzamide], the IC50 at human IR (hIR) is 0.251 to 1 nM; at ALK [6], 0.251 to 1 nM; in the experiment with Colo205 it was < 250 nM; with NCI-H929, < 250 nM; in [4], < 100 nM; in [5] it was 100 to 500 nM.

With `COc1cc2c(cc1Nc1nc(Nc3cccc(F)c3C(N)=O)c3c(F)c[nH]c3n1)N(C(=O)CN(C)C)CC2` [Example 252, 2-[(2-{[1-(N,N-dimethylglycyl)-5-(methyloxy)-2,3-dihydro-1H-indol-6-yl]amino}-5-fluoro-1H-pyrrolo[2,3-d]pyrimidin-4-yl)amino]-6-fluorobenzamide], the IC50 at human IGF1R (hIGF1R) was 0.251 to 1 nM; against human IR (hIR), 0.251 to 1 nM; with Colo205, < 250 nM; in the experiment with NCI-H929 it was < 250 nM; in experiment [4], < 100 nM; in experiment [5], < 100 nM.

For the compound `COc1cc2c(cc1Nc1nc(Nc3cccc(F)c3C(N)=O)c3cc[nH]c3n1)N(C(C)=O)CCC2` [Example 216, 2-[(2-{[1-acetyl-6-(methyloxy)-1,2,3,4-tetrahydro-7-quinolinyl]amino}-1H-pyrrolo[2,3-d]pyrimidin-4-yl)amino]-6-fluorobenzamide], the IC50 on human IGF1R (hIGF1R) was 5.01 to 200 nM; against human IR (hIR) it was 5.01 to 158 nM; in the experiment on Colo205, > 1000 nM; with NCI-H929, 250 to 1000 nM; in experiment [4], > 500 nM; in [5] it was > 500 nM.

Turning to `CCCN1CCC=C(c2ccc(OC)c(Nc3nc(Nc4ccc(F)cc4C(N)=O)c4cc[nH]c4n3)c2)C1` [Example 57, 5-fluoro-2-[(2-{[2-(methyloxy)-5-(1-propyl-1,2,5,6-tetrahydro-3-pyridinyl)phenyl]amino}-1H-pyrrolo[2,3-d]pyrimidin-4-yl)amino]benzamide], the IC50 against human IR (hIR) was 0.251 to 1 nM; against ALK [6], 0.251 to 1 nM; with Colo205, < 250 nM; with NCI-H929, < 250 nM; in experiment [4], < 100 nM; in experiment [5], < 100 nM.

In the case of `CNC(=O)c1c(F)cc(Cl)cc1Nc1nc(Nc2cc3c(cc2OC)CCN3C(=O)CN2CCCC2)nc2[nH]ccc12` [Example 176, 4-chloro-2-fluoro-N-methyl-6-[(2-{[5-(methyloxy)-1-(1-pyrrolidinylacetyl)-2,3-dihydro-1H-indol-6-yl]amino}-1H-pyrrolo[2,3-d]pyrimidin-4-yl)amino]benzamide], the IC50 was 0.251 to 1 nM on human IGF1R (hIGF1R); 0.251 to 1 nM on human IR (hIR); 250 to 1000 nM in the experiment on Colo205; 250 to 1000 nM in the experiment on NCI-H929; 100 to 500 nM in experiment [4]; 100 to 500 nM in experiment [5].

With `COc1cc(N2CCC(N3CCCCC3)CC2)ccc1Nc1nc(Nc2cccc(F)c2C(N)=O)c2cc[nH]c2n1` [Example 45, 2-[(2-{[4-(1,4′-bipiperidin-1′-yl)-2-(methyloxy)phenyl]amino}-1H-pyrrolo[2,3-d]pyrimidin-4-yl)amino]-6-fluorobenzamide], the IC50 on human IGF1R (hIGF1R) is 1.26 to 3.98 nM; against human IR (hIR) it was 1.26 to 3.98 nM; in the experiment with Colo205, 250 to 1000 nM; in the experiment with NCI-H929 it was < 250 nM; in experiment [4] it was 100 to 500 nM; in experiment [5] it was 100 to 500 nM.
